Reference: patent publication US20130338220A1, “COMPOSITIONS, DOSAGES, AND METHODS OF USING TETRAHYDROCANNABINOL DERIVATIVES” (priority 2010, published 2013)

Assays:
[1] = single ascending dose study of immediate release ajulemic acid, adverse events; format: in vivo, human
Excerpt: FIG. 1 is a graph of the dose proportionality of Cmax and AUC0-24 in a single dose study in human subjects of immediate release ajulemic acid.
(§1) Administration of immediate release formulations of the THC derivative ajulemic acid may result in adverse events. Representative pharmacokinetic data for administration of ajulemic acid in immediate release form is shown in FIG. 1 (single ascending dose) and 2 (multiple ascending dose). The data in FIG. 2 are based on greater sampling days 1 and 7. In the single dose study, adverse events were observed when 80 mg or higher was administered. In the multiple dose study, adverse events were observed when 40, 60, and 80 mg was administered three times a day. In the single ascending dose study in fasted subjects, the most frequently occurring adverse events were dizziness (33.3%); nausea (20.8%); vomiting (14.6%); pallor (12.5%); dry mouth; headache; somnolence; tremor; and disorientation (10.4%). Other adverse events include tachycardia, fatigue, feeling drunk, paraesthesia, and euphoric mood (6.3%); and muscle spasms, muscle tightness, disturbance in attention, deja vu, and altered mood (4.2%). In the multiple ascending dose study, the most frequently occurring adverse events were dizziness (38.9%); nausea and somnolence (16.7%); and dry mouth, fatigue, feeling abnormal, anorexia, inappropriate affect, and orthostatic hypotension (11.1%).

[2] = multiple ascending dose study of immediate release ajulemic acid three times a day, adverse events; format: in vivo, human
Experimental: FIG. 2 is a graph of the concentration of ajulemic acid as a function of time in a multiple ascending dose study in human subjects of ajulemic acid administered in an immediate release formulation three times a day (6-6-12 hours). For the 80<=60 mg data, the first four doses were 80 mg and all remaining doses were 60 mg.
as §1

[3] = single ascending dose, fasted subjects

For `CCCCCCC(C)(C)c1cc(O)c2c(c1)OC(C)(C)[C@@H]1CC=C(C(=O)O)C[C@@H]21` [ajulemic acid, (6aR,10aR)-3-(1,1-dimethylheptyl)-Δ8-tetrahydro-cannabinol-9-carboxylic acid], the “adverse event frequency: altered mood” value [1, 3] was 4.2%, the “adverse event frequency: deja vu” value [1, 3] was 4.2% and the “adverse event frequency: disorientation” value [1, 3] was 10.4%. For the same molecule, the “adverse event frequency: disturbance in attention” value [1, 3] was 4.2%, the “adverse event frequency: dizziness” value [1, 3] was 33.3% and the “adverse event frequency: dry mouth” value [1, 3] was 10.4%. For the same molecule, the “adverse event frequency: euphoric mood” value [1, 3] was 6.3%, the “adverse event frequency: fatigue” value [1, 3] was 6.3% and the “adverse event frequency: feeling drunk” value [1, 3] was 6.3%. For the same molecule, the “adverse event frequency: headache” value [1, 3] was 10.4%, the “adverse event frequency: muscle spasms” value [1, 3] was 4.2% and the “adverse event frequency: muscle tightness” value [1, 3] was 4.2%. For the same molecule, the “adverse event frequency: nausea” value [1, 3] was 20.8%, the “adverse event frequency: pallor” value [1, 3] was 12.5% and the “adverse event frequency: paraesthesia” value [1, 3] was 6.3%. For the same molecule, the “adverse event frequency: somnolence” value [1, 3] was 10.4%, the “adverse event frequency: tachycardia” value [1, 3] was 6.3% and the “adverse event frequency: tremor” value [1, 3] was 10.4%. For the same molecule, the “adverse event frequency: vomiting” value [1, 3] was 14.6%, the “dose at which adverse events were observed” value ([1]; single dose study) was at least 80 mg and the “adverse event frequency: anorexia” value [2] was 11.1%. The “adverse event frequency: dizziness” value [2] was 38.9%, the “adverse event frequency: dry mouth” value [2] was 11.1% and the “adverse event frequency: fatigue” value [2] was 11.1%. The “adverse event frequency: feeling abnormal” value [2] was 11.1%, the “adverse event frequency: inappropriate affect” value [2] was 11.1% and the “adverse event frequency: nausea” value [2] was 16.7%. For the same molecule, the “adverse event frequency: orthostatic hypotension” value [2] was 11.1% and the “adverse event frequency: somnolence” value [2] was 16.7%.
